Measured values reported in ChEMBL document CHEMBL1938396, “Synthesis of new praziquantel analogues: potential candidates for the treatment of schistosomiasis” (2012).

tested on: Schistosoma mansoni; assay: Antischistosomal activity against Schistosoma mansoni assessed as worm survival incubated for overnight followed by drug washout measured on day 7; assay type: functional

Structure (SMILES) | LC90 [µM]
Cc1ccc(S(=O)(=O)N2CC(=O)N3CCc4ccccc4C3C2)cc1 (stereo not given) | >10
O=C(C1CCCC1)N1CC(=O)N2CCc3ccccc3C2C1 (stereo not given) | 10
COc1cc2c(cc1OC)C1CN(C(=O)C3CCCCC3)CC(=O)N1CC2 (stereo not given) | 50
COc1cc2c(cc1OC)C1CN(C(=O)C3CCCC3)CC(=O)N1CC2 (stereo not given) | 25
COc1cc2c(cc1OC)C1CN(S(=O)(=O)c3ccc(C)cc3)CC(=O)N1CC2 (stereo not given) | >100
COc1cc2c(cc1OC)C1CN(C(=O)c3ccc(C(F)(F)F)cc3)CC(=O)N1CC2 (stereo not given) | >100
O=C1C(=O)N2CCc3ccccc3C2CN1C(=O)C1CCCCC1 (stereo not given) | >100
O=C1C(=O)N2CCc3ccccc3C2CN1C(=O)C1CCCC1 (stereo not given) | >100
Cc1ccc(S(=O)(=O)N2CC3c4ccccc4CCN3C(=O)C2=O)cc1 (stereo not given) | >100
O=C1C(=O)N2CCc3ccccc3C2CN1C(=O)c1ccc(C(F)(F)F)cc1 (stereo not given) | >100
O=C(CC1CCCCC1)N1CC2c3ccccc3CCN2C(=O)C1=O (stereo not given) | >100
O=C(C1CCCCC1)N1CC(=O)N2CCc3c([nH]c4ccccc34)C2C1 (stereo not given) | 25
O=C(c1ccc(C(F)(F)F)cc1)N1CC(=O)N2CCc3c([nH]c4ccccc34)C2C1 (stereo not given) | 50
O=C(C1CCCCC1)N1CC(=O)N2CCc3c(n(Cc4ccccc4)c4ccccc34)C2C1 (stereo not given) | 25
O=C(c1ccc(C(F)(F)F)cc1)N1CC(=O)N2CCc3c(n(Cc4ccccc4)c4ccccc34)C2C1 (stereo not given) | >100
O=C1C(=O)N2CCc3c(n(Cc4ccccc4)c4ccccc34)C2CN1C(=O)C1CCCCC1 (stereo not given) | >100
O=C1C(=O)N2CCc3c(n(Cc4ccccc4)c4ccccc34)C2CN1C(=O)C1CCCC1 (stereo not given) | >100
O=C1C(=O)N2CCc3c(n(Cc4ccccc4)c4ccccc34)C2CN1C(=O)c1ccc(C(F)(F)F)cc1 (stereo not given) | >100
O=C(CC1CCCCC1)N1CC2c3c(c4ccccc4n3Cc3ccccc3)CCN2C(=O)C1=O (stereo not given) | >100
O=C(C1CCCCC1)N1CC(=O)N2CCc3ccccc3C2C1 (stereo not given) [PRAZIQUANTEL] | 3
